Results reported in patent publication US20200237698A1, “Viral Inhibitor” (priority 2017, published 2020).

Key:
[1] = tested on: HCMV-GFP; experiment: HCMV-GFP infection of HFF evaluated by fluorescent microscope; format: cell-based; details: 7 days
[2] = tested on: human Adenovirus Type 5 (dE1/E3) containing GFP (Ad-GFP); experiment: Ad-GFP infection of HEp2 cells evaluated by fluorescent microscope; format: cell-based; details: 10 μM, HEp2, 20 MOI, 24 hours
[3] = molecular target: EBOV fusion protein (Zaire ebolavirus, UniProt Q05320); format: cell-based, Ebola
Sequence of EBOV fusion protein (Q05320 33-501 limits assumed): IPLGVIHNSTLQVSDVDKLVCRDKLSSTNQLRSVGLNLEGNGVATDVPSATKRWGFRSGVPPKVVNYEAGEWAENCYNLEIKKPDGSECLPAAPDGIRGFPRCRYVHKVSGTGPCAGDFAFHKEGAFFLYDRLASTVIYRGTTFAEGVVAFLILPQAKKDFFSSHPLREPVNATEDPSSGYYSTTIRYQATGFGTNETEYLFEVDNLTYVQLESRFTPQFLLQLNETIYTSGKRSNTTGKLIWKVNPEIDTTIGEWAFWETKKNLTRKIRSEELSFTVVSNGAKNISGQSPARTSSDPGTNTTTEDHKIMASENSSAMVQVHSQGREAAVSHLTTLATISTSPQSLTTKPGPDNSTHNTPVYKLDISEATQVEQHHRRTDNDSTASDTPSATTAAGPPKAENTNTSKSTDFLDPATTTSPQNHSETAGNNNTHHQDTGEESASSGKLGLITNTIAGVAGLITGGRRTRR
Sequence of EBOV fusion protein (Q05320 502-676 limits assumed): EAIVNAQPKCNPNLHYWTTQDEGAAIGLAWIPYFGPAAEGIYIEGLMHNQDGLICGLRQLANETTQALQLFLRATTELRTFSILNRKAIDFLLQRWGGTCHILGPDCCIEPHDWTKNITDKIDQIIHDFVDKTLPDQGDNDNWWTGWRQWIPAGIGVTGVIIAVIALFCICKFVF

[4] = tested on: all three classes of fusion proteins, including Zika, EBOV, influenza A virus (IAV), SFV, VEEV, VSV and EBV; format: cell-based; details: for fusion blocked: 10 μM
[5] = tested on: HSV-1 F'; experiment: GA added to already HSV-1 infected HEp2 and 293T cells, WB detection of HSV-1 proteins; format: cell-based; details: 10 μM added 2 hours after infection at 1 MOI
[6] = tested on: two clinical isolates of HCMV; experiment: HCMV plaque assay in human foreskin fibroblasts; format: cell-based; details: HFF, 0-10 μM GA C15:1, 7 days
[7] = tested on: ZIKV (strain PRVABC59); experiment: ZIKV infection of Normal Human Astrocytes, Zika viral RNA by Taqman real-time PCR; format: cell-based, Zika virus; details: 5 μM to 20 μM, day 7
[8] = tested on: HSV-1 F'; experiment: HSV-1 stock pre-treated with GA, infection of HEp2 or 293T, western blotting of ICP27, ICP8, Us11; format: cell-based; details: 10 MOI stock treated 1 hour with 50 μM, diluted to 0.5 MOI / 2.5 μM; HEp2 and 293T; 5, 10 and 29 hours post-infection
[9] = tested on: HEp2, 293T, Human foreskin fibroblasts (HFF) and Normal Human Astrocytes (NHAs); experiment: Toxicity of GA to the tested cells; details: at the active concentration (not shown)
[10] = tested on: HCMV; experiment: HCMV DNA copies in infected HFF by qPCR targeting the viral polymerase gene; format: cell-based; details: 7 dpi

| Compound | effect on HCMV-GFP infection / plaque formation ([1]; 10 μM) | inhibition of nonenveloped Adenovirus infection [2] | inhibition of Ebola mediated cell-cell fusion [3] | fusion blocked [4] | also measured |
| --- | --- | --- | --- | --- | --- |
| CCCCCCCCCCCCCc1cccc(O)c1C(=O)O [GA C13:0, Ginkgolic acid (GA) C13:0] | strong inhibitory effect on HCMV infection | did not inhibit | inhibition of Ebola mediated cell-cell fusion | 100% |  |
| CCCCCC/C=C\CCCCCCCc1cccc(O)c1C(=O)O [GA C15:1, ginkgolic acid C15:1] | only single cells were infected | did not inhibit | inhibition of Ebola mediated cell-cell fusion | 100% | HSV-1 protein synthesis in already infected cells (WB) [5]: inhibiting the virus from that point; HCMV infectivity monitored by plaquing efficiency [6]: inhibited HCMV infectivity; decrease in Zika viral RNA levels [7]: 80-90%; HSV-1 infection (ICP27, ICP8, Us11 by WB) [8]: complete inhibition of the virus |
| CCCCCC/C=C\CCCCCCCCCc1cccc(O)c1C(=O)O [GA C17:1, Ginkgolic Acid C 17:1] | strong inhibitory effect on HCMV infection | did not inhibit | inhibition of Ebola mediated cell-cell fusion | 100% |  |
| Nc1nc(O)c2ncn(COC(CO)CO)c2n1 [GCV, Ganciclovir, reference compound] |  |  |  |  | effect on HCMV-GFP infection / plaque formation ([1]; 16 μM GCV): very strong inhibition of the virus |
| Ginkgolic acid [GA] |  |  |  |  | toxicity [9]: no toxicity at the active inhibitory range; reduction of viral DNA ([10]; GA added 3 hours after infection): about 80%; HCMV DNA copies, dose dependence ([10]; different concentrations of GA): reduced in a dose dependent manner; fusion after GA was washed [4]: fusion was restored; fusion inhibition with oleic acid (OA) added together with GA [4]: abolished the inhibitory effect of GA |
